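Assay format: 96-well plates, 48-hour exposure. At the TGI there is no net growth.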
How the values were obtained:
Assay in all cases: NCI tumour cell line growth inhibition, 48 h
SN12C renal = tested on: SN12C renal
M19-MEL melanoma = tested on: M19-MEL melanoma
SK-MEL-28 melanoma = tested on: SK-MEL-28 melanoma
LXFL 529 NSCLC = tested on: LXFL 529 NSCLC
HOP-62 NSCLC = tested on: HOP-62 NSCLC
OVCAR-5 ovarian = tested on: OVCAR-5 ovarian
XF 498 CNS = tested on: XF 498 CNS
DMS 273 small cell lung = tested on: DMS 273 small cell lung
DLD-1 colon = tested on: DLD-1 colon
LOX IMVI melanoma = tested on: LOX IMVI melanoma
DMS 114 small cell lung = tested on: DMS 114 small cell lung
KM20L2 colon = tested on: KM20L2 colon
SNB-78 CNS = tested on: SNB-78 CNS
RXF-631 renal = tested on: RXF-631 renal
HOP-18 NSCLC = tested on: HOP-18 NSCLC

Row | Compound | TGI (SN12C renal) [µM] | TGI (M19-MEL melanoma) [µM] | TGI (SK-MEL-28 melanoma) [µM] | TGI (LXFL 529 NSCLC) [µM] | TGI (HOP-62 NSCLC) [µM] | TGI (OVCAR-5 ovarian) [µM] | TGI (XF 498 CNS) [µM] | TGI (DMS 273 small cell lung) [µM] | TGI (DLD-1 colon) [µM] | TGI (LOX IMVI melanoma) [µM] | TGI (DMS 114 small cell lung) [µM] | TGI (KM20L2 colon) [µM] | TGI (SNB-78 CNS) [µM] | TGI (RXF-631 renal) [µM] | TGI (HOP-18 NSCLC) [µM]
1 | Cc1ccc(S(=O)(=O)c2c(N)c3nccn3c3nc4ccccc4nc23)cc1 | > 100 | > 100 | > 100 | > 100 | > 100 | > 100 | > 100 | > 100 | > 100 | > 100 | > 100 | > 100 | > 100 |  | 
2 | O=C1NC2OCC(O)C(O1)C2O (centres undefined) | > 100 | > 100 | > 100 | > 100 | > 100 | > 100 | > 100 | > 100 | > 100 | > 100 | > 100 | > 100 | > 100 | > 100 | > 100
3 | CC1=C2C(=O)C3[C@@H](CCC4=CC(=O)CC[C@@]43C)C2CC[C@]12O[C@@H]1C[C@H](C)CN[C@H]1[C@H]2C (some centres undefined) | > 100 | > 100 | > 100 | > 100 | 68.2 |  | 94.4 | 42.8 | > 100 | > 100 | 28.9 | > 100 |  |  | > 100
4 | Cc1ccc(S(=O)(=O)NC(=O)C2(Br)S(=O)(=O)OCCOS2(=O)=O)cc1 | > 100 | > 100 | > 100 | > 100 | > 100 | > 100 | > 100 | > 100 | > 100 | > 100 | > 100 | > 100 | > 100 |  | 
5 | Cc1c(/C=N/NC(=O)c2ccccc2)c(=O)n(-c2ccccc2)n1C | > 100 | > 100 | > 100 | > 100 | > 100 |  | > 100 | > 100 | > 100 | > 100 | > 100 | > 100 | > 100 |  | > 100
6 | Cc1ccc(C2(C)NC(=S)N(NC(N)=S)C2=S)cc1 (centres undefined) | > 100 | > 100 | > 100 | > 100 | > 100 |  | > 100 | > 100 | > 100 | > 100 | > 100 | > 100 |  | > 100 | 
7 | C=C1C(=O)OC2C[C@H](C)C3CC(=O)C(C)=C3CC12 (some centres undefined) | 26.1 | 27.8 | 18.7 | 24.7 | > 54.4 | 28.9 | 30.1 | 32.5 | 21.5 | 30.4 | 32.2 | 33.5 | 44.1 |  | 
8 | CC(N)C(=O)c1ccc(O)cc1 (centres undefined) | > 100 |  | > 100 | > 100 | > 100 | > 100 |  | > 100 | > 100 | > 100 | > 100 | > 100 | > 100 | > 100 | > 100
9 | SC[C@@H]1COC[C@H](CS)S1 | > 100 |  | > 100 |  | > 100 | > 100 |  |  |  | > 100 |  |  |  |  | 
10 | Cn1c(=O)oc2cc(C(=S)N3CCC(Cc4ccccc4)CC3)ccc21 | > 100 |  | > 100 |  | > 100 | > 100 |  |  |  | > 100 |  |  |  |  | 
11 | C=C[C@@]1(C)CC2CC[C@]3(C)C(C)=CC(=O)CC3[C@]2(C)CC1O (some centres undefined) | > 100 |  | > 100 |  | > 100 | > 100 |  |  |  | > 100 |  |  |  |  | 
12 | COCC[N+](CCNC(=O)c1cccc2c(N)c3cccc(C)c3nc12)(CCOC)Cc1ccc([N+](=O)[O-])cc1 | > 100 |  | 52 |  | > 100 | > 100 |  |  |  | 81.5 |  |  |  |  | 

Source: PubChem BioAssay (NCI)
